This passage reports activity change, negative = toxicity results from PubChem BioAssay AID624265 (Broad Institute, 2012).

Each structure is given as a SMILES string. Calls of active or inactive are those of the source.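 How the source made its calls: active means at a dose no more than twice the top valid tested dose, the fitted curve drops below -35% activity change; inactive means the rest, rising-direction activity included.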

This assay is described as follows: cytotoxicity in NIH3T3 fibroblasts, dose response, cytotoxicity control for HSP40 inhibitor project, cell-based, CellTiter-Glo luminescence, cherry-pick, set 2 (AID 624265).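 Further: cells exposed to compound for 48 hours before the ATP read; 0% = median neutral control signal and -100% = no luminescence left.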 To be noted: NIH3T3 viability, CellTiter-Glo ATP luminescence; at 50 µM (top of the series).

Consider `CC1=CC(C)(C)N(S(=O)(=O)c2ccc(C)cc2)c2ccc(C)cc21`, for which the activity change, negative = toxicity is 9.86% (inactive).
As to `O=c1cc(CSc2ccc(Cl)cc2)nc(-c2ccccn2)[nH]1`, the activity change, negative = toxicity was 20.7% (inactive).
With `CCCC(C)Sc1nc2c([nH]1)c(=S)n(C)c(=O)n2C` (stereo not drawn), the activity change, negative = toxicity was 0.769% (inactive).
Consider `c1ccc(-c2ccc(OCCCn3cncn3)cc2)cc1`, for which the activity change, negative = toxicity was 5.17% (inactive).
`COc1cccc(CC(=O)Nc2ccc3nc(C)sc3c2)c1`: the activity change, negative = toxicity was 14.6% (inactive).
Consider `Cc1cc(Cl)ccc1C(=O)C1CCCN(C(=O)c2cncs2)C1` (stereo not drawn), for which the activity change, negative = toxicity was 14.2% (inactive).
For the compound `C(=C1c2ccccc2-c2ccccc21)c1ccncc1`, the activity change, negative = toxicity is 14.2% (inactive).
With `CCCCCCCc1ccc(-c2ccc(O)cc2)nc1`, the activity change, negative = toxicity is 25.5% (inactive).
As to `CC(=O)NC(c1cccc([N+](=O)[O-])c1)c1ccc2cccnc2c1O` (stereo not drawn), the activity change, negative = toxicity is -27.2% (inactive).
To `COc1cc(NS(=O)(=O)c2ccc(C)cc2)c2ncccc2c1` belongs 5.44% (inactive).
Consider `Fc1ccc(CCNC(=S)Nc2ccc(F)c(Cl)c2)cc1`, for which the activity change, negative = toxicity is -8.4% (inactive).
In the case of `COc1cccc(C(C)=C2SC(=S)NC2=O)c1`, the activity change, negative = toxicity was 1.04% (inactive).
With `c1ccc(C(=NNc2nc3ccccc3s2)c2ccccn2)cc1`, the activity change, negative = toxicity is 11.9% (inactive).
`Cc1c(C(=O)O)cccc1-c1ccc(/C=N/Nc2ccc(Br)cc2)o1`: the activity change, negative = toxicity is -0.158% (inactive).
In the case of `Cc1ccc2c(C)c3ccc4ccccc4c3c[n+]2c1`, the activity change, negative = toxicity is 11.9% (inactive).
Turning to `Oc1c(I)cc(Cl)c2cccnc12`, the activity change, negative = toxicity is -13.1% (inactive).
Turning to `O=C(/C(=N/N=C/c1ccc(O)c(O)c1O)c1ccccc1)c1ccccc1`, the activity change, negative = toxicity was -5.73% (inactive).
In the case of `Cc1ccc(Sc2ccc(NC(=O)CCl)cc2)cc1C` it was 2.95% (inactive); in that of `COc1cc(/C=N/O)cc(Br)c1OCc1cccc(Cl)c1`, 3.56% (inactive); in that of `CC1(C)CC(=O)C(N=Nc2ccc3ncsc3c2)=C(O)C1`, 3.01% (inactive).
Turning to `c1ccc(CSc2ccc(-c3ccccn3)nn2)nc1`, the activity change, negative = toxicity is -13% (inactive).
For the compound `CC(C)CSc1n[nH]c(=S)s1`, the activity change, negative = toxicity is 9% (inactive).
As to `O=C(NC(=S)N(CCc1ccccc1)CCc1ccccc1)c1ccco1`, the activity change, negative = toxicity is 20.1% (inactive).
In the case of `O=c1c2ccccc2c(-c2ccc(O)cc2)nn1-c1cccc(C(F)(F)F)c1` it was -18.6% (inactive).
On to `CCCS(=O)(=O)c1c(S(=O)(=O)CCC)c2c(C)cccn2c1C(=O)N/N=C/c1cc(O)cc(O)c1`, for which the activity change, negative = toxicity is -15.8% (inactive).
Regarding `Oc1c(CN2CCCC2)cc(COCc2ccccc2)c2cccnc12`, the activity change, negative = toxicity was -2.61% (inactive).
With `CC/C(=N/NC(=O)c1ccccc1O)c1c(C)[nH]n(-c2ccccc2)c1=O`, the activity change, negative = toxicity is -2.64% (inactive).
`CCOC(=O)c1ccc(N2C(=O)CC(N3CCC(O)(c4ccc(Cl)cc4)CC3)C2=O)cc1` (stereo not drawn): the activity change, negative = toxicity is -0.824% (inactive).
As for `Oc1c(Br)cc(-c2ccccc2)cc1Br`, the activity change, negative = toxicity was 10.3% (inactive).
In the case of `CCOc1ccc(N/N=C(/C#N)C(N)=O)cc1` it was 9.15% (inactive); in that of `CCCCc1ccc(-n2c(Cc3cccs3)n[nH]c2=S)cc1`, -7.72% (inactive).
For `O=C(NOC(=O)c1ccccc1)c1ccccc1`, the activity change, negative = toxicity was -12.1% (inactive).
To `CCCCNC(=S)N/N=C1\CCCCc2ccccc21` belongs 1.99% (inactive).
Consider `O=[N+]([O-])c1ccc2c(OCc3nnc(-c4ccccc4Br)o3)ncnc2c1`, for which the activity change, negative = toxicity was -6.18% (inactive).
Take `O=c1c(CO)cc(CO)cc(CO)c1O`: the activity change, negative = toxicity was -3.78% (inactive).
Regarding `Cc1cccc(NC(=S)NC(C)CCc2ccccc2)c1` (stereo not drawn), the activity change, negative = toxicity is 12.9% (inactive).
Take `CCN1C(=O)C(CC(=O)Nc2ccccc2Cl)N(NC(=O)c2cccc(F)c2)C1=S` (stereo not drawn): the activity change, negative = toxicity is 11.9% (inactive).
`COc1ccccc1C1CCN(C(=O)c2ccc(Cl)cc2)CC1`: the activity change, negative = toxicity is 6.31% (inactive).
For `CC(C)NC(=O)NC(=O)COC(=O)c1ccc([N+](=O)[O-])cc1Cl`, the activity change, negative = toxicity is -6.58% (inactive).
To `C[n+]1c2cc(N)ccc2cc2ccc(N)cc21` belongs 14.2% (inactive); to `NC(=Nc1nc(-c2ccccn2)cc2ccccc12)c1ccccn1`, -27.1% (inactive); to `C=C(C)COc1ccc(-c2[nH]ncc2-c2ccc(Br)cc2)c(O)c1`, 1.03% (inactive).
With `CCCCNc1c(-c2ccc(-c3ccc(OC)cc3)c(OC)c2)nc2ccccn12`, the activity change, negative = toxicity is 2.06% (inactive).
`COC(=O)COC(=O)c1ccccc1NC(=O)c1ccccc1`: the activity change, negative = toxicity was -14.7% (inactive).
As to `Cc1ccoc1C(=O)Nc1cccc(Oc2ccccc2)c1`, the activity change, negative = toxicity is 9.85% (inactive).
For `Cc1c(C2(O)CCCCC2)[nH]c2ccc(C(F)(F)F)cc12`, the activity change, negative = toxicity was -6.56% (inactive).
To `CCCCCCn1c(=O)c(C(=O)Nc2ncccc2C)c(O)c2ccccc21` belongs 6.84% (inactive); to `CC1(C(=O)OCC(=O)Nc2ccc3ccccc3c2)CC1(Cl)Cl` (stereo not drawn), 0.196% (inactive); to `CCCOc1ccc(S(=O)(=O)n2cc(F)c(=O)[nH]c2=O)cc1`, 10.7% (inactive).
`Cc1ccc(NC(=O)CN(C)C(=O)c2cccnc2Nc2cccc(C(F)(F)F)c2)cc1`: the activity change, negative = toxicity was -0.151% (inactive).
In the case of `CC(NC(=S)NC1CCC(C(C)(C)C)CC1)c1ccccc1` (stereo not drawn) it was 3.27% (inactive); in that of `Clc1ccccc1C(c1ccccc1)(c1ccccc1)n1ccnc1`, 10.3% (inactive); in that of `O=C(N/N=C/c1cc(Cl)cc([N+](=O)[O-])c1O)c1ccccc1NS(=O)(=O)c1cccs1`, 2.81% (inactive).
Regarding `CCCc1cc(C(N)=O)c(NC(=O)c2cc(C)on2)s1`, the activity change, negative = toxicity is 12.3% (inactive).
For `CCOC(=O)c1ccc(NC(=S)N(Cc2cccnc2)Cc2ccco2)cc1`, the activity change, negative = toxicity was 2.56% (inactive).
Consider `C=C(C)COc1ccc(-c2[nH]ncc2-c2ccccc2)c(O)c1`, for which the activity change, negative = toxicity is -16.4% (inactive).
As for `CCC(Oc1ccc(Br)cc1Cl)C(=O)Nc1nnc(C2CC2)s1` (stereo not drawn), the activity change, negative = toxicity is 5.54% (inactive).
In the case of `FC(F)(F)c1cccc(N2CCc3cn[nH]c32)c1`, the activity change, negative = toxicity was -9.14% (inactive).
Consider `CN(C)c1ccc(C=c2c3cc(O)ccc3n3c2cc(-c2ccccc2)[n+]3C)cc1`, for which the activity change, negative = toxicity is 3.47% (inactive).
Turning to `CCC(NC(=S)NCc1ccc(F)cc1)c1ccc(C(C)C)cc1` (stereo not drawn), the activity change, negative = toxicity was 41.2% (inactive).
With `Cc1cc(C)c(C(=O)CC(=O)c2cccnc2)c(C)c1`, the activity change, negative = toxicity is 8.73% (inactive).
As to `Cc1cccc(N2CCN(C(=O)C3COc4ccccc4O3)CC2)c1C` (stereo not drawn), the activity change, negative = toxicity was -5.05% (inactive).
Turning to `O=c1c2ccccc2nc(-c2cccc(Cl)c2)n1O`, the activity change, negative = toxicity was 4.83% (inactive).
`COc1cnc(-c2ccccn2)nc1Sc1ccc(C)cc1`: the activity change, negative = toxicity was -14.4% (inactive).
Regarding `CCn1c(CNc2ccc(Cl)cc2)nnc1SCc1ccccc1`, the activity change, negative = toxicity was -7.39% (inactive).
Turning to `CCCC1CCC(c2ccc(/C(N)=N/O)cc2)CC1` (stereo not drawn), the activity change, negative = toxicity was -4% (inactive).
For the compound `O=C(NCCC1=CCCCC1)c1c(O)nc2sccn2c1=O`, the activity change, negative = toxicity was 15.1% (inactive).
To `O=C(CSc1ccc(-c2ccccn2)nn1)c1ccccc1` belongs -10.1% (inactive).
`O=C(c1ccc(Cl)cc1)N1CCN(c2ccc(F)cc2)CC1`: the activity change, negative = toxicity is 5.81% (inactive).
As for `O=C(O)c1c(NC(=O)N2CCCC2)sc2c1CCCC2`, the activity change, negative = toxicity was 19.6% (inactive).
For the compound `COc1cc2cnc(-c3ccccc3)c(C(=O)c3ccc(F)cc3)c2cc1OC`, the activity change, negative = toxicity was 26.6% (inactive).
As to `COC(=O)C1=NN(C(=O)c2cccc(Br)c2)C(O)(c2ccc(Cl)cc2)C1` (stereo not drawn), the activity change, negative = toxicity is -0.434% (inactive).
Consider `C[C@@]12CCC3[C@@](CCC4[C@@]3(C)CCC[C@@]4(C)C(=O)NCc3ccccc3)(CC1=O)C2` (stereo partly drawn), for which the activity change, negative = toxicity is 2.89% (inactive).
In the case of `O=C(Nc1nnc(SCc2ccc(F)cc2)s1)c1ccccn1`, the activity change, negative = toxicity is 5.25% (inactive).
Turning to `COc1ccc(N=N/C(=C\O)C(=O)c2cccs2)cc1`, the activity change, negative = toxicity was 14.1% (inactive).
Consider `Cc1csc(NC(=O)C(C)Oc2ccc(Cl)cc2C)n1` (stereo not drawn), for which the activity change, negative = toxicity was 8.91% (inactive).
To `O=S(=O)(c1ccc(Cl)cc1)N1CCC2(CC1)OCCN2S(=O)(=O)c1cccs1` belongs -0.748% (inactive); to `Nc1cc2c3ccccc3ccc2c2ccccc12`, -1.86% (inactive); to `Cc1cccc(Oc2nc(-c3ccccn3)nc3ccccc23)c1`, 18.9% (inactive).
Turning to `O=C(CC1CC2CCC1C2)Nc1nc(-c2ccccn2)cs1` (stereo not drawn), the activity change, negative = toxicity is 10.2% (inactive).
In the case of `Cc1nc2ccc(C(=O)NCc3ccc4c(c3)OCO4)cc2s1` it was 1.22% (inactive); in that of `O=c1c(O)c(-c2ccccc2)oc2ccccc12`, -0.823% (inactive); in that of `O=C(c1ccccc1)c1coc2c1C(=O)c1ccccc1C2=O`, -10.3% (inactive).
